Data as given in ChEMBL document CHEMBL4152224, “The Identification of Potent, Selective, and Orally Available Inhibitors of Ataxia Telangiectasia Mutated (ATM) Kinase: The Discovery of AZD0156 (8-{6-[3-(Dimethylamino)propoxy]pyridin-3-yl}-3-methyl-1-(tetrahydro-2 H-pyran-4-yl)-1,3-dihydro-2 H-imidazo[4,5- c]quinolin-2-one)” (J Med Chem, 2018).
In brackets after ≈: the same amount, converted by molar mass.

Experiments:
[1] = Oral bioavailability in rat; assay type: ADME, organism-based; conditions: in vivo
[2] = Volume of distribution at steady state in rat; assay type: ADME, organism-based; conditions: in vivo, read-out: Vdss
[3] = Intrinsic clearance in human hepatocytes assessed per million cells
in vivo [4] = conditions: rat
[5] = Thermodynamic solubility of the compound in 0.1M aqueous phosphate buffer at pH 7.4 after 24 hrs by LC-UV analysis; assay type: physicochemical; conditions: read-out: Therm_solubility
[6] = Intrinsic clearance in rat hepatocytes assessed per million cells
in vivo [7] = conditions: rat; remark: listed apart in the source
[8] = target: Voltage-gated inwardly rectifying potassium channel KCNH2 (Homo sapiens, UniProt Q12809); assay: Inhibition of human ERG by electrophysiology assay
Sequence of Voltage-gated inwardly rectifying potassium channel KCNH2 (Q12809 whole entry): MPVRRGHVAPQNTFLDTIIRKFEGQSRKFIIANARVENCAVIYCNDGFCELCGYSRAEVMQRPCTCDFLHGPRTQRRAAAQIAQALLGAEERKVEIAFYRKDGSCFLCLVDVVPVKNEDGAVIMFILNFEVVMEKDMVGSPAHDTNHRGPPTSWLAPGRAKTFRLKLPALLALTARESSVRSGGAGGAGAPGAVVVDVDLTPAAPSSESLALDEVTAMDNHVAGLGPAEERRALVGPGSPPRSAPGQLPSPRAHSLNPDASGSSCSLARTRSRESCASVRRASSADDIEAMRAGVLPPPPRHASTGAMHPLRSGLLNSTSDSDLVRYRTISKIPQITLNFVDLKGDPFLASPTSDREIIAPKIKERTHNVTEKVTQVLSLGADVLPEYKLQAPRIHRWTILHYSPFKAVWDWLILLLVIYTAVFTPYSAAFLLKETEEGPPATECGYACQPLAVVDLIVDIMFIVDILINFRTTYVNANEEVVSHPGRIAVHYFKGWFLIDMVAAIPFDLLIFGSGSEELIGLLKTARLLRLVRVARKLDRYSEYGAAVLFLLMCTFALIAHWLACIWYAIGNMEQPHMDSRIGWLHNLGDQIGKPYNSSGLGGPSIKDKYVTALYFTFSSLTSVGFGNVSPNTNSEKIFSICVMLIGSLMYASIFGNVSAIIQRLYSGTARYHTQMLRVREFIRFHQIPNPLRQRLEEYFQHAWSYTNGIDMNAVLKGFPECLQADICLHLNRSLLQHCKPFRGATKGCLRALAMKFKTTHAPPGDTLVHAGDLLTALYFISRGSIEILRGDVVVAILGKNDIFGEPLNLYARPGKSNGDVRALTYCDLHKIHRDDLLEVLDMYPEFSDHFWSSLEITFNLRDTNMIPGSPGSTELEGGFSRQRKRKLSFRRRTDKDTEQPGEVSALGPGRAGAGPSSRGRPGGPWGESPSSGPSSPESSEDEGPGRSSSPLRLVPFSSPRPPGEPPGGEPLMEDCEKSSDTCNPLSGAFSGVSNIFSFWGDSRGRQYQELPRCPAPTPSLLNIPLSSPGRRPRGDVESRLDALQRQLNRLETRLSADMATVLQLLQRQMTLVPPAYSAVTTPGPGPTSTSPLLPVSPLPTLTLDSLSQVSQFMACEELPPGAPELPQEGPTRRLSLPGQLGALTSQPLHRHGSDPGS

[9] = target: Serine/threonine-protein kinase ATR (Homo sapiens, UniProt Q13535)
[10] = Buffer/octanol partition coefficient, log D of the compound at pH 7.4 by shake flask method; assay type: physicochemical
in vitro = conditions: dog, MDCK-MDR1
Description: Efflux ratio of apparent permeability across basolateral to apical over apical to basolateral side in MDCK cells overexpressing MDR1

[11] = target: T1, Serine-protein kinase ATM (Homo sapiens, UniProt Q13315)
T1 sequence (Q13315 whole entry): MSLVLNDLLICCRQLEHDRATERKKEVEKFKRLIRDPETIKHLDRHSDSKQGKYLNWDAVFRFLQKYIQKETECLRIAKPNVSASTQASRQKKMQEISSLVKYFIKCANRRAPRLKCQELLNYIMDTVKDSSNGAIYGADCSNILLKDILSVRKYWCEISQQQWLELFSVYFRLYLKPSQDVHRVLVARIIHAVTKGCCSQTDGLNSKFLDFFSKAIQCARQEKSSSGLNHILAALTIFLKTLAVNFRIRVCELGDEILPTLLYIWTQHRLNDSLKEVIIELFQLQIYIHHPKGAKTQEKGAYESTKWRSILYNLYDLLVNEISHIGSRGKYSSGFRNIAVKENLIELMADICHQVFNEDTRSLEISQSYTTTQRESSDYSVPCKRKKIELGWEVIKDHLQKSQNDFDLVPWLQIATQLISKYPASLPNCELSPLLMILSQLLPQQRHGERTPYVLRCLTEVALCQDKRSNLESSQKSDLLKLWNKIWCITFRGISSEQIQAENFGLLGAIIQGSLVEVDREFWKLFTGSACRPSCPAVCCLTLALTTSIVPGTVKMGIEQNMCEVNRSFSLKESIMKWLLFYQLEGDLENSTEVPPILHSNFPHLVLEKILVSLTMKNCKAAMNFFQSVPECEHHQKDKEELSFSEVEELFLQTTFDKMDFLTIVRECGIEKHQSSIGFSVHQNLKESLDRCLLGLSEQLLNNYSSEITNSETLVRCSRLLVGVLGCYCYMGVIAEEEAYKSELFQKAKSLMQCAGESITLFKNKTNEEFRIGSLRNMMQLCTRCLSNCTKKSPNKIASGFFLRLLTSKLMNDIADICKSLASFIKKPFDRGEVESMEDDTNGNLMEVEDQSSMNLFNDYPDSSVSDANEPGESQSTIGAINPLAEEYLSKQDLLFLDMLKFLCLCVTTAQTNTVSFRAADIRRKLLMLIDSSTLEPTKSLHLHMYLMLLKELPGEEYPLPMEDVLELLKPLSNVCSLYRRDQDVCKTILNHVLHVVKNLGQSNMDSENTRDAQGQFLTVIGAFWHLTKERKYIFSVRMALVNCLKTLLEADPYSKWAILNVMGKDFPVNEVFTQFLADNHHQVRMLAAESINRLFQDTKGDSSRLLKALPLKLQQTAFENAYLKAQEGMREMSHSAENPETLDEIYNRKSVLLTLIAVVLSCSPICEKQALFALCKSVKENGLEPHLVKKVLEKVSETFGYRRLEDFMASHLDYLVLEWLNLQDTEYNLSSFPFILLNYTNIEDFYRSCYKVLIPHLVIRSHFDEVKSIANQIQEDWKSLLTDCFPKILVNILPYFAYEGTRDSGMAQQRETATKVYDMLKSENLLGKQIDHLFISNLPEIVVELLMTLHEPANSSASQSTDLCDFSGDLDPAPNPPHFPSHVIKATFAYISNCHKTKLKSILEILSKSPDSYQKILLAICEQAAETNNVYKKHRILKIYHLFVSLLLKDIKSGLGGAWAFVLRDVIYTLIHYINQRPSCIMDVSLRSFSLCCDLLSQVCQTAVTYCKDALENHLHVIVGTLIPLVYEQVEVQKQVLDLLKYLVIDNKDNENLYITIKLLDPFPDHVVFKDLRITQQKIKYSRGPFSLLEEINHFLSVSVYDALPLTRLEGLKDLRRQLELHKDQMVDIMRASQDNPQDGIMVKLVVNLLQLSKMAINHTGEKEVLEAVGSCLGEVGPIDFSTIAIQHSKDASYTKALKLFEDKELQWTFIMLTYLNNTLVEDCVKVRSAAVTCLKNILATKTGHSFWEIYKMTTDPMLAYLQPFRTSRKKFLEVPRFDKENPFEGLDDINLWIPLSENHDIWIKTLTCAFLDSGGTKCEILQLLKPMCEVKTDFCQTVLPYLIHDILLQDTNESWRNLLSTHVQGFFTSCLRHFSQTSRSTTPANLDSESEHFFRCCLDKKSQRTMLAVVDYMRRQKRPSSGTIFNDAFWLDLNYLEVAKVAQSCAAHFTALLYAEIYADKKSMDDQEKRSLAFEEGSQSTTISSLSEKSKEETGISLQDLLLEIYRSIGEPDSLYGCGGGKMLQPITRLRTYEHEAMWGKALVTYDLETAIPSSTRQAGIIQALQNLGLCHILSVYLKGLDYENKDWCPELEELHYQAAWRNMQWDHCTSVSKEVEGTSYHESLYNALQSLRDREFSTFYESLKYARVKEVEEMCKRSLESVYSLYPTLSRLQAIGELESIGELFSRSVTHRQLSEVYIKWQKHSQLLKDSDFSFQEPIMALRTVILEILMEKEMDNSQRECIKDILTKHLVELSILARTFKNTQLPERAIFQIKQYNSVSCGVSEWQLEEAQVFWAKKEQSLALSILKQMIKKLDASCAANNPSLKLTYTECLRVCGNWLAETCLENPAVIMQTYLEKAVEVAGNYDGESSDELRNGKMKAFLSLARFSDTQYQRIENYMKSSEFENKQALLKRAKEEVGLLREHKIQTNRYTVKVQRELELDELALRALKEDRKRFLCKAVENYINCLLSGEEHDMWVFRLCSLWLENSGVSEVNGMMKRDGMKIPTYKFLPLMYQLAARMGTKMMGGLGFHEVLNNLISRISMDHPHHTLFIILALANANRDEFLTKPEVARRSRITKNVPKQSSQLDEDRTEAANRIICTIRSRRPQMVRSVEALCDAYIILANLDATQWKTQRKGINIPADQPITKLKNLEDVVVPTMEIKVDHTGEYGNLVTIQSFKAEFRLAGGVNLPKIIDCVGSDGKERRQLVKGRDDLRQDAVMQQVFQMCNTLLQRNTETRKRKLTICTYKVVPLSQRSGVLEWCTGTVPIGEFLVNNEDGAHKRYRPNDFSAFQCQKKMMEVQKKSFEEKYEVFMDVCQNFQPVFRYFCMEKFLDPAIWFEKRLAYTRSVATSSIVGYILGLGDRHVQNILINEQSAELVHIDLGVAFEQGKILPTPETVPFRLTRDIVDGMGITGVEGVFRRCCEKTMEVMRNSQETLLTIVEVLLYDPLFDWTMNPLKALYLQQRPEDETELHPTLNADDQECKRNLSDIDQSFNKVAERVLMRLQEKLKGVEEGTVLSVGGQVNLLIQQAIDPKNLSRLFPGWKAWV

[12] = Apparent permeability across apical to basolateral side in MDCK cells overexpressing MDR1; assay type: ADME, cell-based, Canis lupus familiaris; conditions: dog
Homo sapiens [13] = species: Homo sapiens; assay: Selectivity ratio of IC50 for DNA-PK derived from human HeLa cells to IC50 for ATM derived from human HeLa cell nuclear extract
Homo sapiens [14] = species: Homo sapiens; assay: Selectivity ratio of IC50 for ATR derived from human HeLa cell cytoplasmic extract to IC50 for ATM derived from human HeLa cell nuclear extract
Homo sapiens [15] = species: Homo sapiens; assay: Selectivity ratio of IC50 for PI3K derived from human HeLa cells to IC50 for ATM derived from human HeLa cell nuclear extract
Homo sapiens [16] = species: Homo sapiens; assay: Selectivity ratio of IC50 for mTOR derived from human HeLa cells to IC50 for ATM derived from human HeLa cell nuclear extract
[17] = target: T1, Serine-protein kinase ATM; assay: Inhibition of ATM derived from human HeLa cell nuclear extract using glutathione S-transferase p53N66 as substrate preincubated for 10 mins followed by ATP addition and subsequent incubation for 1 hr measured after 1.5 hrs by ELISA
[18] = Dissociation constant, pKa of the compound; assay type: physicochemical
[19] = Volume of distribution at steady state in dog; assay type: ADME, organism-based, Canis lupus familiaris; conditions: in vivo, read-out: Vdss
in vivo [20] = conditions: dog
[21] = Oral bioavailability in dog; assay type: ADME, organism-based, Canis lupus familiaris; conditions: in vivo
in vivo [22] = conditions: dog; remark: listed apart in the source

Row | Compound | bioavailability [1] [%] | Vd [2] [L/kg] | hepatocyte CLint [3] [µL/min/1e6 cells] | half-life (in vivo [4]) [h] | solubility thermodynamic at 24 h [5] [µM] | hepatocyte CLint [6] [µL/min/1e6 cells] | clearance (in vivo [7]) [mL/min/kg] | IC50 [8] [µM] | IC50 [9] [µM] | logD [10] | efflux ratio (in vitro) | IC50 [11] [µM] | Papp A→B [12] [×10⁻⁶ cm/s] | pKa [18] | further results
1 | COCc1ccc(-c2cc3c(cc2F)ncc2c3n([C@H]3C[C@@H](OC)C3)c(=O)n2C)cn1 | > 100 | 0.98 | 8.8 | 2.7 | 37 (≈ 15.6 µg/mL) | 4.5 | 22.5 | 9 | > 30 | 2.7 | 0.4 | 0.1 | 38 |  | 
2 | CN1CCN(CCC(=O)Nc2ccc3c(c2)Sc2cccc(-c4cc(=O)cc(N5CCOCC5)o4)c2S3)CC1 |  |  |  |  |  |  |  |  |  |  |  |  |  |  | Ratio IC50 (Homo sapiens [13]): > 300; Ratio IC50 (Homo sapiens [14]): > 300; Ratio IC50 (Homo sapiens [15]): > 300; Ratio IC50 (Homo sapiens [16]): > 300; IC50 [17]: 0.003 µM
3 | CO[C@H]1C[C@@H](n2c(=O)n(C)c3cnc4ccc(-c5ccc(OCCCN6CCC(O)CC6)nc5)cc4c32)C1 |  |  |  |  | 750 (≈ 388 µg/mL) | < 1 |  |  | > 30 | 0.6 |  | 27 |  | 8.4 | 
4 | CO[C@H]1C[C@@H](n2c(=O)n(C)c3cnc4ccc(-c5ccc(OCCCN(C)C)nc5)cc4c32)C1 | 50 | 5.7 | 8.7 | 5 | 540 (≈ 249 µg/mL) | 5.1 | 19.5 | > 33 | > 30 | 1.6 | 3 |  | 7.8 | 9.5 | Vd [19]: 11 L/kg; clearance (in vivo [20]): 27.6 mL/min/kg; bioavailability [21]: 65%; half-life (in vivo [22]): 5 h
